Measured values from patent US20230406843A1, “Progranulin Modulators and Methods of Using the Same” (ARKUDA THERAPEUTICS, priority 2020, published 2023).
Structures can show the parent of a compound that is named as a salt.

These molecules were tested on progranulin (assay: Progranulin induction cellular assay (ELISA of secreted mouse PGRN)). Settings: progranulin induction assay; mouse pMG, primary cortical neurons and BV-2 cell lines named, cell type not given; ELISA-based readout; read-out: EC50.
Assay type: cell-based
How it was run: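 Mouse primary microglia, primary cortical neurons and BV-2 cells are used. BV-2 cells are plated in 96-well format the day before, with a 1 h attachment and 16 h incubation. Progranulin secreted into the medium is quantified by ELISA.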
`CCC(=O)N(C)[C@H]1CO[C@@H](C(=O)N2CCc3ccccc3[C@@H]2c2ccc(F)cc2)C[C@@H]1N` [Compound 5517, N-((3R,4S,6R)-4-amino-6-((S)-1-(4-fluorophenyl)-1,2,3,4-tetrahydroisoquinoline-2-carbonyl)tetrahydro-2H-pyran-3-yl)-N-methylpropionamide] was tested, and the EC50 was 12 nM.
In the case of `C[C@H]1CO[C@@H](C(=O)N2CCc3ccccc3[C@@H]2c2ccc(F)cc2)C[C@@H]1N` [Compound 5518, ((2R,4S,5R)-4-amino-5-methyltetrahydro-2H-pyran-2-yl)((S)-1-(4-fluorophenyl)-3,4-dihydroisoquinolin-2(1H)-yl)methanone], the EC50 is reported as 15 nM.
In the case of `C[C@@H]1CO[C@@H](C(=O)N2CCc3ccccc3[C@@H]2c2ccc(F)cc2)C[C@@H]1N` [Compound 5519, ((2R,4S,5S)-4-amino-5-methyltetrahydro-2H-pyran-2-yl)((S)-1-(4-fluorophenyl)-3,4-dihydroisoquinolin-2(1H)-yl)methanone], the EC50 is reported as 41 nM.
`CS[C@H]1CO[C@@H](C(=O)N2CCc3ccccc3[C@@H]2c2ccc(F)cc2)C[C@@H]1N` [Compound 5520, ((2R,4S,5R)-4-amino-5-(methylthio)tetrahydro-2H-pyran-2-yl)((S)-1-(4-fluorophenyl)-3,4-dihydroisoquinolin-2(1H)-yl)methanone] gave an EC50 of 4 nM.
`CCS[C@H]1CO[C@@H](C(=O)N2CCc3ccccc3[C@@H]2c2ccc(F)cc2)C[C@@H]1N` [Compound 5521, ((2R,4S,5R)-4-amino-5-(ethylthio)tetrahydro-2H-pyran-2-yl)((S)-1-(4-fluorophenyl)-3,4-dihydroisoquinolin-2(1H)-yl)methanone] showed an EC50 of 8 nM.
Work on `CS(=O)(=O)[C@H]1CO[C@@H](C(=O)N2CCc3ccccc3[C@@H]2c2ccc(F)cc2)C[C@@H]1N` [Compound 5523, ((2R,4S,5R)-4-amino-5-(methylsulfonyl)tetrahydro-2H-pyran-2-yl)((S)-1-(4-fluorophenyl)-3,4-dihydroisoquinolin-2(1H)-yl)methanone] yielded an EC50 of 16 nM.
With `CCS(=O)(=O)[C@H]1CO[C@@H](C(=O)N2CCc3ccccc3[C@@H]2c2ccc(F)cc2)C[C@@H]1N` [Compound 5524, ((2R,4S,5R)-4-amino-5-(ethylsulfonyl)tetrahydro-2H-pyran-2-yl)((S)-1-(4-fluorophenyl)-3,4-dihydroisoquinolin-2(1H)-yl)methanone] the EC50 was 16 nM.
For `N[C@H]1C[C@H](C(=O)N2CCc3ccccc3[C@@H]2c2ccc(F)cc2)OC[C@@H]1OC1CCC1` [Compound 5525, ((2R,4S,5R)-4-amino-5-cyclobutoxytetrahydro-2H-pyran-2-yl)((S)-1-(4-fluorophenyl)-3,4-dihydroisoquinolin-2(1H)-yl)methanone], the EC50 was 0.3 nM.
`CC[C@H]1CO[C@@H](C(=O)N2CCc3ccccc3[C@@H]2c2ccc(F)cc2)C[C@@H]1N` [Compound 5526, ((2R,4S,5R)-4-amino-5-ethyltetrahydro-2H-pyran-2-yl)((S)-1-(4-fluorophenyl)-3,4-dihydroisoquinolin-2(1H)-yl)methanone] showed an EC50 of 6 nM.
`N[C@H]1C[C@H](C(=O)N2CCc3ccccc3[C@@H]2c2ccc(F)cc2)OC[C@@H]1Oc1ccccc1` [Compound 5527, ((2R,4S,5R)-4-amino-5-phenoxytetrahydro-2H-pyran-2-yl)((S)-1-(4-fluorophenyl)-3,4-dihydroisoquinolin-2(1H)-yl)methanone] was tested, and the EC50 was 274 nM.
`CN1C=N[C@H]2C[C@H](C(=O)N3CCc4ccccc4[C@@H]3c3ccc(F)cc3)OC[C@H]21` [Compound 5528, ((S)-1-(4-fluorophenyl)-3,4-dihydroisoquinolin-2(1H)-yl)((3aS,6R,7aS)-3-methyl-3,3a,4,6,7,7a-hexahydropyrano[3,4-d]imidazol-6-yl)methanone hydrochloride] was tested, and the EC50 was 168 nM.
In the case of `Cn1cnc2c1CO[C@@H](C(=O)N1CCc3ccccc3[C@@H]1c1ccc(F)cc1)C2` [Compound 5529, ((S)-1-(4-fluorophenyl)-3,4-dihydroisoquinolin-2(1H)-yl)((R)-3-methyl-3,4,6,7-tetrahydropyrano[3,4-d]imidazol-6-yl)methanone], the EC50 is reported as 1560 nM.
